This passage reports IC50 and EC50 results from patent US10981932B2, “Macrocyclic indole derivatives” (Bayer Aktiengesellschaft, priority 2016, dated 2021).

One experiment deals with T1, BCL-2 (Homo sapiens, UniProt P10415).
T1 construct: BCL-2 (amino acids 1-211, C-terminal fused to a hexahistidine (6×His) tag); purchased BPS Bioscience (San Diego, Calif., USA); host or cells: E. coli
Briefly: Protein-protein interaction assay BCL-2/Bad BH3 peptide (BCL-2 assay), TR-FRET. The experiment is classed as binding. To be noted: His-BCL-2 / Bad BH3-derived peptide, median. Here is the method: Protein-Protein Interaction Assay: BCL-2/Bad BH3 Peptide (BCL-2 Assay)
The dose-dependent inhibition by the compounds described in this invention of the interaction between BCL-2 and the BH3 domain of Bad (both human) was determined using a steady state binding competition assay with time-resolved fluorescence energy transfer (TR-FRET) readout. For that purpose BCL-2 (amino acids 1-211, C-terminal fused to a hexahistidine (6×His) tag and a synthetic Bad BH3-derived peptide of sequence Biotin-PEG2-PEG2-NLWAAQRYGRELRR-Nle-SDEFVDSFKK-amide (SEQ ID NO: 2) served as protein receptor and tracer ligand respectively. The recombinant BCL-2 protein (expressed in E. coli) was purchased from BPS Bioscience (San Diego, Calif., USA). The Bad BH3-derived peptide can be obtained from e.g. Biosyntan (Berlin, Germany).
In the assay 11 different concentrations of each compound (0.1 nM, 0.33 nM, 1.1 nM, 3.8 nM. 13 nM, 44 nM, 0.15 μM, 0.51 μM, 1.7 μM, 5.9 μM and 20 μM) were typically measured as duplicates in the same microtiter plate. For that, 100-fold concentrated DMSO solutions were prepared by serial dilutions (1:3.4) of a 2 mM stock solution in a clear, 384-well microtiter plate (Greiner Bio-One, Frickenhausen, Germany). From there, 50 nl were transferred in a dark test plate (Greiner Bio-One. Frickenhausen, Germany). The assay was initiated by addition of 2 μl of a 2,5-fold concentrated His-BCL-2 solution (usually for a 1 nM end concentration in 5 μl reaction volume) in aqueous assay buffer [50 mM Tris/HCl pH 7, 100 mM sodium chloride (NaCl), 50 mM potassium fluoride (KF), 0.005% Tween-20, 2 mM DTT, 0.1% bovine gamma globulin (BGG)] to the compounds in the assay plate. This was followed by a 10-minute incubation step at 22° C. for pre-equilibration of the putative complex between His-BCL-2 and the compounds.
The mixture was incubated in the dark for one hour at 22° C. and then overnight at 4° C. The formation of BCL-2/Bad complexes was determined by measuring the resonance energy transfer of the anti-His-Eu-cryptate antibody to the streptavidin-XL665 present in the reaction. For that purpose, the fluorescence emission at 620 nm and 665 nm after excitation at 330-350 nm was measured in a TR-FRET measuring instrument, for instance a Rubystar or a Pherastar (both from BMG Lab Technologies. Offenburg, Germany) or a Viewlux (Perkin-Elmer). The ratio of the emission at 665 nm and at 622 nm was used as indicator of the amount of BCL-2/Bad complexes present.
The resulting data (ratio) were normalized, taking 0% inhibition as the mean value of control measurements (usually 32 data points) where all reagents were included. In this case 50 nl DMSO were used instead of compounds. A 100% inhibition corresponded to the mean value of control measurements (usually 32 data points) where all reagents except BCL-2 were included. IC50 values were determined by regression analysis based on a 4 parameter equation (minimum, maximum, IC50, Hill; Y=Max+(Min−Max)/(1+(X/IC50)^Hill) using the Screener Software (Genedata).
(In general: TR-FRET usually uses a lanthanide donor and a delayed reading to cut background.)

Another experiment concerns SUDHL5. In words: Induction of caspase-3/7 activity (Caspase-Glo 3/7), SUDHL5. The experiment is classed as cell-based. As to conditions: caspase-3/7 induction, SUDHL5 cells, 3 h treatment; median. The method in brief: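 Caspase-Glo 3/7 luminescence, 3 h compound exposure, 37 °C, humidified. Minus medium-only blank. EC50 fit: C0=1, plateau = reference max induction.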

Another experiment has as its target MCL-1 (Homo sapiens, UniProt Q07820). In words: Protein-protein interaction assay MCL-1/Noxa BH3 peptide (MCL-1 assay), TR-FRET. The experiment is classed as binding. As to conditions: MBP-MCL-1 / Noxa BH3-derived peptide, median. The method in brief: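 Displacement of the biotinylated Noxa BH3 peptide from MBP-tagged human MCL-1 (1 nM) is detected by time-resolved FRET. Compounds are tested in duplicate across eleven concentrations up to 20 μM, incubated 1 h at 22 °C and overnight at 4 °C, and IC50 is fitted with a four-parameter equation.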

Structures can show the parent of a compound that is named as a salt. Where only a bound is given, the exact number is not on record here.

Chain of MCL-1 (Q07820 whole entry): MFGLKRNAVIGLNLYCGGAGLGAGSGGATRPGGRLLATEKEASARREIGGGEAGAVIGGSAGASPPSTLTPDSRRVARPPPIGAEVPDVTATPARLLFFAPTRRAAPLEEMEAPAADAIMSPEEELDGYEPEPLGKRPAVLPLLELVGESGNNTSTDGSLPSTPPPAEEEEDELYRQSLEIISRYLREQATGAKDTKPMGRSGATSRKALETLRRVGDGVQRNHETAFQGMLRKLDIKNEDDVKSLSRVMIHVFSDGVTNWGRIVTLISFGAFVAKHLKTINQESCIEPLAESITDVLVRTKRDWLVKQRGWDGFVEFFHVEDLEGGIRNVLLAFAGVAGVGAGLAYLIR
T1 sequence (P10415 1-211): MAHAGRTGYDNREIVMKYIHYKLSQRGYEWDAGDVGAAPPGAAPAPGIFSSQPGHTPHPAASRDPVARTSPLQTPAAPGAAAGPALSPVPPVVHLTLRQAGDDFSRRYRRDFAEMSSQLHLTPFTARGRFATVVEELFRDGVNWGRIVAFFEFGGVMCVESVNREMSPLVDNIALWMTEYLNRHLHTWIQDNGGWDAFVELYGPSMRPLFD

With `CCc1c2c(nn1C)COCCCCn1c(C(=O)O)c(CCCOc3cccc4ccccc34)c3cccc-2c31` (single isomer, unassigned; enantiomer 1) [Example 148, 3-Ethyl-2-methyl-7-[3-(1-naphthyloxy)propyl]-2,10,11,12,13,15-hexahydropyrazolo[4′,3′:9,10][1,6]oxazacycloundecino[8,7,6-hi]indole-8-carboxylic acid-N-ethylethanamine Salt (Enantiomer 1)], the IC50 – broadly, the midpoint of a concentration-inhibition curve – against BCL-2 was more than 20000 nM; at MCL-1, 0.919 nM. The midpoint of the response with SUDHL5, the EC50, lay at 881 nM.

Turning to `CCc1c2c(nn1C)COCCCCn1c(C(=O)O)c(CCCOc3cccc4ccccc34)c3ccc(C)c-2c31` (single isomer, unassigned; enantiomer 1) [Example 154, 3-Ethyl-2,4-dimethyl-7-[3-(1-naphthyloxy)propyl]-2,10,11,12,13,15-hexahydropyrazolo[4′,3′:9,10][1,6]oxazacycloundecino[8,7,6-hi]indole-8-carboxylic acid-N-ethylethanamine Salt (Enantiomer 1)], the concentration for half-maximal inhibition (IC50) against BCL-2 is more than 20000 nM; against MCL-1 it was 1.28 nM. For the same compound, a half-maximal effect in the experiment on SUDHL5 (EC50) was put at 661 nM.

Turning to `Cn1nc(COc2ccc(N3CCN(S(C)(=O)=O)CC3)cc2)c2c1COCCCCn1c(C(=O)O)c(CCCOc3cccc4ccccc34)c3cccc-2c31` (single isomer, unassigned; enantiomer 2) [Example 1-10, 1-methyl-3-({4-[4-(methylsulfonyl)piperazin-1-yl]phenoxy}methyl)-7-[3-(naphthalen-1-yloxy)propyl]-1,10,11,12,13,15-hexahydropyrazolo[4′,3′:9,10][1,6]oxazacycloundecino[8,7,6-hi]indole-8-carboxylic acid (enantiomer 2)], the IC50 against BCL-2 is more than 20000 nM; on MCL-1, 0.93 nM. The concentration giving a half-maximal response (EC50) – broadly, the midpoint of the concentration-response curve – with SUDHL5 came to 486 nM.

In the case of `Cn1nc(COc2ccc(N3CCN(S(=O)(=O)C4CC4)CC3)cc2)c2c1COCCCCn1c(C(=O)O)c(CCCOc3cccc4ccccc34)c3cccc-2c31` (single isomer, unassigned; enantiomer 2) [Example 1-13, 3-({4-[4-(cyclopropylsulfonyl)piperazin-1-yl]phenoxy}methyl)-1-methyl-7-[3-(naphthalen-1-yloxy)propyl]-1,10,11,12,13,15-hexahydropyrazolo[4′,3′:9,10][1,6]oxazacycloundecino[8,7,6-hi]indole-8-carboxylic Acid (Enantiomer 2)], the results for the concentration for half-maximal inhibition (IC50) against BCL-2 and on MCL-1 were more than 20000 nM and 0.796 nM, respectively. The concentration for a half-maximal effect (EC50) with SUDHL5 is 324 nM.

Take `COCc1nn(C)c2c1-c1cccc3c(CCCOc4cccc5ccccc45)c(C(=O)O)n(c13)CCCN(C)C2` (single isomer, unassigned; enantiomer 2) [Example 1-104, 11-(methoxymethyl)-7,9-dimethyl-1-[3-(1-naphthyloxy)propyl]-4,5,6,7,8,9-hexahydropyrazolo[3′,4′:7,8][1,5]diazecino[9,10,1-hi]indole-2-carboxylic Acid (Enantiomer 2)]: the results for the half-maximal inhibitory concentration (IC50) against BCL-2 and against MCL-1 were more than 20000 nM and 3.55 nM, respectively. In addition, the concentration giving a half-maximal response (EC50) in the experiment on SUDHL5 amounted to 4960 nM.

As for `Cc1nn(C)c2c1-c1cccc3c(CCCOc4ccc(F)c5ccccc45)c(C(=O)O)n(c13)CCCCOC2` (single isomer, unassigned; enantiomer 2) [Example 023, 7-{3-[(4-fluoronaphthalen-1-yl)oxy]propyl}-1,3-dimethyl-1,10,11,12,13,15-hexahydropyrazolo[4′3′:9,10][1,6]oxazacycloundecino[8,7,6-hi]indole-8-carboxylic acid-N-ethylethanamine Salt (Enantiomer 2)], the IC50 against BCL-2 is more than 20000 nM; at MCL-1 it was 1.69 nM. Also, in the experiment on SUDHL5, the EC50 stood at 2150 nM.

As for `Cc1c2c(nn1CCN1CCOCC1)CN(C)CCCn1c(C(=O)O)c(CCCOc3cccc4ccccc34)c3cccc-2c31` (single isomer, unassigned; enantiomer 2) [Example 061, 7,11-dimethyl-10-[2-(morpholin-4-yl)ethyl]-1-[3-(naphthalen-1-yloxy)propyl]-4,5,6,7,8,10-hexahydropyrazolo[3′,4′:7,8][1,5]diazecino[9,10,1-hi]indole-2-carboxylic Acid (Enantiomer 2)], the results for the IC50 on BCL-2 and against MCL-1 were more than 20000 nM and 32.2 nM, respectively. Moreover, in the experiment with SUDHL5, a half-maximal response (EC50) required 21900 nM.

For `Cc1ccc2c(CCCOc3cccc4ccccc34)c(C(=O)O)n3c2c1-c1c(nn(C)c1C)CN(C)CCC3` (single isomer, unassigned; enantiomer 2) [Example 074, 7,10,11,12-tetramethyl-1-[3-(naphthalen-1-yloxy)propyl]-4,5,6,7,8,10-hexahydropyrazolo[3′,4′:7,8][1,5]diazecino[9,10,1-hi]indole-2-carboxylic Acid (Enantiomer 2)], the values for the IC50 at BCL-2 and against MCL-1 were more than 20000 nM and 26.9 nM, respectively. This compound also gave an EC50 in the experiment on SUDHL5 of more than 33000 nM.
